Laboratory results published in patent US20120135863A1, “COMPOSITION AND METHOD FOR PROMOTING PLANT ROOT GROWTH” (priority 2009, published 2012).

System: Raphanus sativus
Experiment: Root growth promotion test: main root length of Raphanus sativus seedlings in seed growing bag
Format: in vivo
Settings: compound 2 at 3 ppm, compound I at 10 ppm, mixture 3 ppm compound 2 + 10 ppm compound I; seeds on cardboard impregnated with 17 ml solution; 25° C., 7 days; average of three repeats
Experimental: One (1) part of each of the compound 2 and the compound I was dissolved in 99 parts of dimethyl sulfoxide and each of the resultant solutions was diluted with ion-exchange water so as to adjust the concentrations of the compound 2 and the compound I to 3 ppm and 10 ppm, respectively to thereby prepare respective test chemical solutions.
In the same manner, chemical solutions were prepared so as to adjust the concentrations of the compound 2 and the compound I to 6 ppm and 20 ppm, respectively, and then the respective chemical solutions were mixed in an equivalent amount to prepare a mixed test chemical solution containing 3 ppm of the compound 2 and 10 ppm of the compound I.
A cardboard in a seed growing bag (measuring 177 mm×163 mm, manufactured by Daiki Rika Kogyo Co., Ltd.) was impregnated with 17 ml of each of these test chemical solutions, and 3 seeds of Raphanus sativus were sown on the cardboard. The seed growing bag was placed in a plastic container, and the plastic container was sealed. After culturing in a bright place at 25° C. for 7 days, the length of main root was measured. For comparison, the test was conducted in the same manner without treating with the test chemical solution, and the length of the main root was measured. […]

## O=C(O)CCC(=O)NCCc1ccccc1 [Compound I, 4-oxo-4-[(2-phenylethyl)amino]-butyric acid]
  Relative value (main root length, non-treated control group as 100): 148
